Laboratory results taken from patent US20090306053A1, “Highly selective rho-kinase inhibitor” (priority 2005, published 2009).
Structures can show the parent of a compound that is named as a salt.

Legend:
Type in all cases: biochemical
[1] = molecular target: T1, Purified bovine PKA (catalyst subunit) (Bos taurus, UniProt P00517); experiment: PKA kinase assay (Kinase-Glo ATP consumption); settings: relative ratio to ROCKII (=1.0), based on IC50 values
T1 construct: Purified bovine PKA (catalyst subunit, Promega); purchased Promega
Description: Purified bovine PKA (catalyst subunit, Promega) was used to evaluate its activity to phosphorylate a substrate peptide (LRRASLG, Promega).
(§1) In a system of the total volume of 50 μL, the reaction of the above-mentioned enzyme (43 ng) was carried out at room temperature for 20 minutes in the presence of 40 mM of Tris-HCl (pH 7.5), 20 mM of magnesium chloride, 1 mg/mL of BSA, 5 μM of the above peptide, and 1 μM of ATP. After the kinase reaction, the luminescence intensity corresponding to the amount of ATP in the reaction system was measured using a luciferase reagent (Kinase-Glo Luminescent Kinase Assay kit, Promega) with a chemiluminescence measurement apparatus (MicroLumat, Berthold Technologies). The amount of ATP consumed by the phosphorylation reaction was calculated by comparison with the luminescence intensity in the system when the kinase reaction was not carried out.
(§2) With this system, the kinase reaction was carried out in the presence of a compound at various concentrations, and the IC50 value of the compound was determined based on the resulting compound concentration-response curve for ATP consumption.
(§3) The ROCKII-inhibiting activity of a compound to be tested was defined as 1.0, and the inhibitory activities of the compound against kinases (PKA, PKG, CaMKII, and AuroraA) other than ROCKII were calculated as relative ratios to the ROCKII-inhibiting activity, based on the IC50 values calculated using the above-described evaluation system.

Purified bovine PKGα = molecular target: T2, Purified bovine PKGα (Bos taurus, UniProt P00516); experiment: PKG kinase assay (Kinase-Glo ATP consumption); settings: relative ratio to ROCKII (=1.0), based on IC50 values
T2 construct: Purified bovine PKGα (Promega); purchased Promega
T2 sequence (P00516 1-671): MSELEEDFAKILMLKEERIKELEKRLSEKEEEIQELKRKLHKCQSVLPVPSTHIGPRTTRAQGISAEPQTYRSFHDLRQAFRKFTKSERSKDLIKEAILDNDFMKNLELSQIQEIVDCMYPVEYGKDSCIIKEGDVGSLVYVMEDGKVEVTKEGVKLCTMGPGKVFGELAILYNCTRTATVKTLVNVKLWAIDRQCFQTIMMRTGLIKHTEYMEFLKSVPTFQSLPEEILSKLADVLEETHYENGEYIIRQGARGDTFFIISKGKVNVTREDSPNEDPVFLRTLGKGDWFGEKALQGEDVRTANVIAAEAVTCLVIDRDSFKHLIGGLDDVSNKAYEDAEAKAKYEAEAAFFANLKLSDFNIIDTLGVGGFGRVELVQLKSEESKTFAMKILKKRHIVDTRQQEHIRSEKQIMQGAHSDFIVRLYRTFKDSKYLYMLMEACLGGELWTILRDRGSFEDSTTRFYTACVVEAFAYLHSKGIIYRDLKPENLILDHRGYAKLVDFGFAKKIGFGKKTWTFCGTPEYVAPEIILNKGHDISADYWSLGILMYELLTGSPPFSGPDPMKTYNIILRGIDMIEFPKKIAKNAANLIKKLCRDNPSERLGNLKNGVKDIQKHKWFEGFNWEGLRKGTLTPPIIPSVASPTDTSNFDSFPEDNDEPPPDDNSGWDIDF
Description: Purified bovine PKGα (Promega) was used to evaluate its activity to phosphorylate a substrate peptide (RKISASEF, Promega).
as §1, with “enzyme (64” for “enzyme (43”, “for 80” for “for 20”, “chloride, 10 μM” for “chloride, 1 mg/mL”, “of cGMP (Sigma), 100” for “of BSA, 5”
as §2, §3

[2] = molecular target: T3, Recombinant human AuroraA (Homo sapiens, UniProt O14965); experiment: AuroraA kinase assay (Kinase-Glo ATP consumption); set-up: key to Realative Inhibitory Activity AuroraA: ratio relative to ROCKII-inhibiting activity defined as 1.0 (from IC50s); settings: relative ratio to ROCKII (=1.0), based on IC50 values
T3 construct: purchased Upstate
T3 sequence (O14965 1-403): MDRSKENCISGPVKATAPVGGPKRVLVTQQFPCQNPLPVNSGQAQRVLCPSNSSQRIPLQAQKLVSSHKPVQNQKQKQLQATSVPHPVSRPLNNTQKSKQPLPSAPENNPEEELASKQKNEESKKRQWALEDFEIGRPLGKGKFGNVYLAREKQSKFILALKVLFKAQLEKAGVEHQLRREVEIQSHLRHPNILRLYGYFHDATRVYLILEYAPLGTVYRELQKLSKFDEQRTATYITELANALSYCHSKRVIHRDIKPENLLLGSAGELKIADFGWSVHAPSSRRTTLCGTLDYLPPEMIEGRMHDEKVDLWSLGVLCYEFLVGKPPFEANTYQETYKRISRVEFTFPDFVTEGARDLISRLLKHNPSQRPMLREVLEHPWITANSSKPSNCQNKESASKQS
Description: Recombinant human AuroraA (Upstate) was used to evaluate its activity to phosphorylate a substrate peptide (LRRASLG, Promega) was evaluated.
as §1, with “enzyme (40” for “enzyme (43”, “for 80” for “for 20”, “of MOPS-NaOH” for “of Tris-HCl”, “chloride, 200” for “chloride, 1 mg/mL of BSA, 5”
as §2, §3

ROCKII (Rho-kinase) = ROCKII (Rho-kinase) (Homo sapiens, UniProt O75116); experiment: Rho-kinase (ROCKII) assay according to Patent Document 1; set-up: key to Realative Inhibitory Activity ROCKII: relative ratio; ROCKII-inhibiting activity defined as 1.0; settings: ROCKII-inhibiting activity defined as 1.0 (reference)
Description: An Rho-kinase assay was carried out according to the method described in Patent Document 1, and the concentration of a compound for inhibiting Rho-kinase activity by 50% (hereinafter referred to as “IC50 value”) was calculated.
as §3

Purified rat CaMKII = experiment: CaMKII kinase assay (Kinase-Glo ATP consumption); settings: relative ratio to ROCKII (=1.0), based on IC50 values
Description: Purified rat CaMKII (containing CaMKIIα and small amounts of β, γ, and δ isoforms, Upstate) was used to evaluate its activity to phosphorylate a substrate peptide (KKALRRQETVDAL, Upstate).
as §1, with “enzyme (33” for “enzyme (43”, “for 60” for “for 20”, “of 50” for “of 40”, “Tris-HCl (pH7.5), 10” for “Tris-HCl (pH 7.5), 20”, “chloride, 2 mM of calcium chloride, 0.04” for “chloride, 1”, “BSA, 16 μg/mL of purified bovine brain calmodulin (Sigma), 0.5 mM of DTT, 50 µM” for “BSA, 5 μM”
as §2, §3

Sequence of ROCKII (Rho-kinase) (O75116 whole entry, species assumed): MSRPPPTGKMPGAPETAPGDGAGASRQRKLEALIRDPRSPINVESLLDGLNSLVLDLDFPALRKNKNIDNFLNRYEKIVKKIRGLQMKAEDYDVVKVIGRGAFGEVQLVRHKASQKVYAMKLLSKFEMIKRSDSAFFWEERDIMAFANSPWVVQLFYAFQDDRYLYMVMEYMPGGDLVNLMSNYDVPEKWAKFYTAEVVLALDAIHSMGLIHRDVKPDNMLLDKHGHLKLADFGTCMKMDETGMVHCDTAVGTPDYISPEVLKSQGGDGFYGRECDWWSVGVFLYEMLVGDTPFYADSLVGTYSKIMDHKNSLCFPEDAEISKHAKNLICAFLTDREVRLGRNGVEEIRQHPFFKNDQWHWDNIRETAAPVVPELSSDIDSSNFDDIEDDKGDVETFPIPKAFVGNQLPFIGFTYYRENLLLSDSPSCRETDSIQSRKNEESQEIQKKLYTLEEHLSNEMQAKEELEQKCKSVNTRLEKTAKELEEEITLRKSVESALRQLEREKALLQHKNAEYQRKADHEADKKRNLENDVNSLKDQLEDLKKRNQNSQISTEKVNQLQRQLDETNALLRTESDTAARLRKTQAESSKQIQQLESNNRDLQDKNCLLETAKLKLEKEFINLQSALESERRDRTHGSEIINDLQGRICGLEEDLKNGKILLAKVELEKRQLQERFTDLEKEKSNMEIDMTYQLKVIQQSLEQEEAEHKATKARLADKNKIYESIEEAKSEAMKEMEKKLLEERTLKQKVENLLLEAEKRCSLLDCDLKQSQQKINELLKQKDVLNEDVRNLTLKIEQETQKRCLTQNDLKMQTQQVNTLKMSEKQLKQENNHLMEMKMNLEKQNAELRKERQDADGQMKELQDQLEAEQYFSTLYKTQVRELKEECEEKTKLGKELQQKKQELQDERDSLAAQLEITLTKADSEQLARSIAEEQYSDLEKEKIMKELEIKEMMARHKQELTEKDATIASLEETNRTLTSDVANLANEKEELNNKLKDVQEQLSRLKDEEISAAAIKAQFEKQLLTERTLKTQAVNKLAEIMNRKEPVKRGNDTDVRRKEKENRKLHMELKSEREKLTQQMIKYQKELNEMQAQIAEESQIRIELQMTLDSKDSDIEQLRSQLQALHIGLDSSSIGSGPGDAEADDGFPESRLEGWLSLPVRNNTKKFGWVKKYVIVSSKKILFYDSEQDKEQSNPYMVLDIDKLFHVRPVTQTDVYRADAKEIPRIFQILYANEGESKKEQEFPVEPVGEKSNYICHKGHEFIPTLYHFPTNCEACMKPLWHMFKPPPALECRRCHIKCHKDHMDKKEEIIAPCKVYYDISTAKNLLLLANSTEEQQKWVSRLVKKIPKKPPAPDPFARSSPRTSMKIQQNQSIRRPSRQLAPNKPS

| Molecule | Realative Inhibitory Activity PKA [1] | Realative Inhibitory Activity PKG (Purified bovine PKGα) | Realative Inhibitory Activity AuroraA [2] | Realative Inhibitory Activity ROCKII (ROCKII (Rho-kinase)) | Realative Inhibitory Activity CaMKII (Purified rat CaMKII) |
| --- | --- | --- | --- | --- | --- |
| CC[C@H](N)C(=O)N1CCCN(S(O)(O)c2cccc3cncc(F)c23)[C@@H](C)C1 [Example 11, 2-(S)-4-(L-α-aminobutylyl)-1-(4-fluoroisoquinoline-5-sulfonyl)-2-methylhomopiperazine dihydrochloride] | >300 | 79 | 210 | 1 | 364 |
| C[C@H](N)C(=O)N1CCCN(S(O)(O)c2cccc3cncc(F)c23)[C@@H](C)C1 [Example 3, 2-(S)-4-(L-alanyl)-1-(4-fluoroisoquinoline-5-sulfonyl)-2-methylhomopiperazine dihydrochloride] | >300 | 11 | 145 | 1 | 135 |
| CC(C)[C@@H](N)C(=O)N1CCCN(S(O)(O)c2cccc3cncc(F)c23)[C@@H](C)C1 [Example 6, 2-(S)-1-(4-fluoroisoquinoline-5-sulfonyl)-2-methyl-4-(D-valyl)homopiperazine dihydrochloride] | >300 | 30 | >300 | 1 | >300 |
| 2-(S)-4-(D-alanyl)-1-(4-fluoroisoquinoline-5-sulfonyl)-2-methylhomopiperazine dihydrochloride [Example 4] | >300 | 93 | >300 | 1 | 300 |
| CC[C@@H](N)C(=O)N1CCCN(S(O)(O)c2cccc3cncc(F)c23)[C@@H](C)C1 [Example 12, 2-(S)-4-(D-α-aminobutylyl)-1-(4-fluoroisoquinoline-5-sulfonyl)-2-methylhomopiperazine dihydrochloride] | >300 | 92 | 244 | 1 | >300 |
